EC50 data for 21 molecules are collected here from patent US20240217963A1, “RECEPTOR-INTERACTING PROTEIN 1 INHIBITORS, PREPARATIONS, AND USES THEREOF” (SIRONAX LTD., priority 2021, published 2024).

The assay addresses T1, RIP1 (Homo sapiens, UniProt Q13546).
T1 sequence (Q13546 1-671): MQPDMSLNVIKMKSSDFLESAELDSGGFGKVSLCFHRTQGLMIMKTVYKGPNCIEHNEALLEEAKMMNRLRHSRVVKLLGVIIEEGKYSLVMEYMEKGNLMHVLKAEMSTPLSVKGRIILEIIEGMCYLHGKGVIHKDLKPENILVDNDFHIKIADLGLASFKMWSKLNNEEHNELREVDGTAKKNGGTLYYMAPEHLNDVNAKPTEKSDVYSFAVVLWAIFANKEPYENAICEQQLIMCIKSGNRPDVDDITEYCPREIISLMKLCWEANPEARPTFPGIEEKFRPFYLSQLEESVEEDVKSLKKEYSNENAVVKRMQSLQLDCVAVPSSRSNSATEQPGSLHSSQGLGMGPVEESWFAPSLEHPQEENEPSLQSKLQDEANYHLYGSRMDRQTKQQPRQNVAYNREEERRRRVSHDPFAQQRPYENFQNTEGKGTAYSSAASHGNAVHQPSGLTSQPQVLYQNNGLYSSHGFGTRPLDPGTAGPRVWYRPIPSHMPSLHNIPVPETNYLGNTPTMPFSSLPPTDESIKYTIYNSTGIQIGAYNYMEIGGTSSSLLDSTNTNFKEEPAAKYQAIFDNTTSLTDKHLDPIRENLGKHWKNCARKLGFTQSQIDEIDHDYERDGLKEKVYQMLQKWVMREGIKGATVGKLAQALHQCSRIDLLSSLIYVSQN
Briefly: Cellular RIP1 inhibitory activity: HT-29 necroptosis (TNFα/SMAC mimetic/zVAD-FMK) CellTiter-Glo viability assay. The class given is cell-based. The conditions noted are these: HT-29 cells, TNF-α 10 ng/ml + SMAC mimetic 6 μM + zVAD-FMK 10 μM, 20 hours, geometric mean, read-out: EC50 Values of in vitro Cellular RIP1 Inhibitory Activity. Here is the method:
Compounds 1-99 (denoted as Cmpd Nos. 1 through 99 in Table 2 below) of the disclosure were tested for binding and cellular RIP1 inhibitory activity following the experimental procedures described below. Cell Seeding • 1. HT-29 cells were checked every day to make sure that they were healthy and growing as expected. They were subjected to sub-culturing when they were approximately 80% confluent. • 2. The culture medium, McCOY's 5 A medium (Gibco, Cat No. 16600-082) with 10% fetal bovine serum or FBS (Gibco, Cat No. 10099-141C), was pre-warmed in a 37° C. water bath for at least 30 min. • 3. When the cells had reached a desired level of confluency of 80% in a T75 flask, the medium was aspirated, and the cells were washed with warm phosphate buffered saline or PBS two times. • 4. 2-3 ml fresh warm trypsin (Gibco, Cat No. 25200-056) solution was added to the washed cells. The flask with the cells was transferred to a 37° C. incubator. • 5. After 5 minutes, the side of the flask was tapped, and the flask was examined under a microscope for detachment of the cells to the flask. If necessary, the cells were kept in the incubator for an additional 5-10 minutes, with occasional tapping, until lifting was complete. • 6. The trypsin reaction was neutralized by transferring 6-9 ml cell culture medium to sterile 15 ml conical tubes, and by centrifuging the cell culture at 300×g for 7 minutes to pellet the cells (supernatant decanted). • 7. The cells were resuspended in fresh cell culture medium and the cell counting was performed using a hemocytometer. • 8. 100 μl of the resuspended cell culture medium containing ˜5,000 cells were transferred into each well of the sterile 96-well cell culture plate (Corning 3903) and cultured overnight at 37° C. with 5% CO2. Compound Titration and Treatment • 1. All test compounds were dissolved in DMSO (Dimethyl sulfoxide) to create a 20 mM stock. • 2. 3 μl of each compound 20 mM stock was mixed with 27 μl DMSO, and the compound solution was further diluted at a titration ratio of 1:3 (20 μl compound solution+40 μl DMSO) till the 10 points end. • 3. All culture medium was removed from assay plates filled with HT-29 cell cultures. […] 0.5 μL of the diluted compound solution was added to the corresponding 96-well assay plates. • 5. The assay plates were incubated for 20 hours at 37° C. with 5% CO2. Cell Viability Detection • 1. The CellTiter-Glo® Luminescent Cell Viability Assay was employed to detect the ATP levels of viable HT-29 cells. • 2. The CellTiter-Glo® buffer and the lyophilized substrate were equilibriated to room temperature prior to use. • 3. The CellTiter-Glo® substrate was resuspended with CellTiter-Glo® buffer, then mixed by gently vortexing to obtain a homogeneous solution. • 4. 20 μl the enzyme/substrate mixture was transferred by multi-channel pipetting into 96-well assay plates. • 5. The assay plates were placed on an orbital shaker and the contents were shaken for 3 minutes to induce cell lysis. • 6. The assay plates were incubated at room temperature for 10 minutes to stabilize the luminescent signal. • 7. The luminescence signals were read and recorded with EnVision. • 8. The geometric mean EC50 values were calculated from 10 points response dose with duplicates. In Table 2, activity is provided as follows: +++=0.1 nM≤EC50<100 nM; ++=100 nM≤EC50<1000 nM; +=1000 nM≤EC50<10000 nM.

As to `CCN(Cc1cscn1)C(=O)C1CCN(c2ncc(F)c(-c3c(C)cnn3C)n2)CC1` [Compound 94, 1-(4-(1,4-dimethyl-1H-pyrazol-5-yl)-5-fluoropyrimidin-2-yl)-N-ethyl-N-(thiazol-4-ylmethyl) piperidine-4-carboxamide], the EC50 was 0.1 to 100 nM. Take `Cc1nc(C)c(CN(C)C(=O)C2CCN(c3ncc(F)c(-c4c(C)cnn4C)n3)CC2)s1` [Compound 69, 1-(4-(1,4-dimethyl-1H-pyrazol-5-yl)-5-fluoropyrimidin-2-yl)-N-((2,4-dimethylthiazol-5-yl)methyl)-N-methylpiperidine-4-carboxamide]: the EC50 lay within 100 to 1000 nM. As for `Cc1cnn(C)c1-c1nc(N2CCC(C(=O)N(O)Cc3ccc(F)cn3)CC2)ncc1F` [Compound 10, 1-(4-(1,4-dimethyl-1H-pyrazol-5-yl)-5-fluoropyrimidin-2-yl)-N-((5-fluoropyridin-2-yl)methyl)-N-hydroxypiperidine-4-carboxamide], the EC50 was 0.1 to 100 nM. For `Cc1cnn(C)c1-c1nc(N2CCC(C(=O)N(O)Cc3cccnc3F)CC2)ncc1F` [Compound 25, 1-(4-(1,4-dimethyl-1H-pyrazol-5-yl)-5-fluoropyrimidin-2-yl)-N-((2-fluoropyridin-3-yl)methyl)-N-hydroxypiperidine-4-carboxamide] the value was 0.1 to 100 nM; for `Cc1cnn(C)c1-c1nc(N2CCC(C(=O)NCc3cc(F)cc(F)c3F)CC2)ncc1F` [Compound 6, 1-(4-(1,4-dimethyl-1H-pyrazol-5-yl)-5-fluoropyrimidin-2-yl)-N-(2,3,5-trifluorobenzyl)piperidine-4-carboxamide], 0.1 to 100 nM. The value for `[2H]C([2H])(NC(=O)C1CCN(c2ncc(F)c(-c3c(C)cnn3C)n2)CC1)c1cc(F)cc(F)c1F` [Compound 60, 1-(4-(1,4-dimethyl-1H-pyrazol-5-yl)-5-fluoropyrimidin-2-yl)-N-((2,3,5-trifluorophenyl)methyl-d2)piperidine-4-carboxamide] was 0.1 to 100 nM; that for `Cc1ncc(CN(C)C(=O)C2CCN(c3ncc(F)c(-c4c(C)cnn4C)n3)CC2)s1` [Compound 91, 1-(4-(1,4-dimethyl-1H-pyrazol-5-yl)-5-fluoropyrimidin-2-yl)-N-methyl-N-((2-methylthiazol-5-yl)methyl)piperidine-4-carboxamide] was 0.1 to 100 nM.

Regarding `[2H]C([2H])([2H])N(Cc1nccs1)C(=O)C1CCN(c2ncc(F)c(-c3c(C)cnn3C)n2)CC1` [Compound 77, 1-(4-(1,4-dimethyl-1H-pyrazol-5-yl)-5-fluoropyrimidin-2-yl)-N-(methyl-d3)-N-(thiazol-2-ylmethyl)piperidine-4-carboxamide], the EC50 is 0.1 to 100 nM. For the molecule `Cn1ncnc1-c1nc(N2CCC(C(=O)NCc3cc(F)cc(F)c3F)CC2)ncc1F` [Compound 21, 1-(5-fluoro-4-(1-methyl-1H-1,2,4-triazol-5-yl)pyrimidin-2-yl)-N-(2,3,5-trifluorobenzyl)piperidine-4-carboxamide], the EC50 was in the range of 0.1 to 100 nM. `Cc1cnn(C)c1-c1cc(N2CCC(C(=O)NCc3nccs3)CC2)c(F)cn1` [Compound 63, 1-(2-(1,4-dimethyl-1H-pyrazol-5-yl)-5-fluoropyridin-4-yl)-N-(thiazol-2-ylmethyl)piperidine-4-carboxamide]: the EC50 was 100 to 1000 nM. The value for `Cc1cnn(C)c1-c1nc(N2CCC(C(=O)N(O)Cc3cc(F)cc(C#N)c3)CC2)ncc1F` [Compound 32, N-(3-cyano-5-fluorobenzyl)-1-(4-(1,4-dimethyl-1H-pyrazol-5-yl)-5-fluoropyrimidin-2-yl)-N-hydroxypiperidine-4-carboxamide] was 0.1 to 100 nM; that for `Cc1cnn(C)c1-c1nc(N2CCC(C(=O)N[C@@H](CO)c3ccccc3)CC2)ncc1F` [Compound 35, (R)-1-(4-(1,4-dimethyl-1H-pyrazol-5-yl)-5-fluoropyrimidin-2-yl)-N-(2-hydroxy-1-phenylethyl)piperidine-4-carboxamide] was 0.1 to 100 nM; that for `CCN(Cc1cc(F)cc(F)c1)C(=O)C1CCN(c2cc(-c3c(C)cnn3C)ncn2)CC1` [Compound 89, N-(3,5-difluorobenzyl)-1-(6-(1,4-dimethyl-1H-pyrazol-5-yl)pyrimidin-4-yl)-N-ethylpiperidine-4-carboxamide] was 100 to 1000 nM. The value for `Cc1cnn(C)c1-c1ccc(OC2CC(C(=O)N(O)Cc3cc(F)cc(F)c3)C2)c(F)n1` (stereo not drawn) [Compound 54, N-(3,5-difluorobenzyl)-3-((6-(1,4-dimethyl-1H-pyrazol-5-yl)-2-fluoropyridin-3-yl)oxy)-N-hydroxycyclobutane-1-carboxamide] was 100 to 1000 nM. Take `Cc1cnn(C)c1-c1nc(N2CCC(C(=O)N(O)Cc3ccnc(F)c3)CC2)ncc1F` [Compound 20, 1-(4-(1,4-dimethyl-1H-pyrazol-5-yl)-5-fluoropyrimidin-2-yl)-N-((2-fluoropyridin-4-yl)methyl)-N-hydroxypiperidine-4-carboxamide]: the EC50 was 0.1 to 100 nM. Turning to `Cc1cnn(C)c1-c1nc(N2CCC(C(=O)N(C)Cc3nccs3)CC2)ncc1F` [Compound 95, 1-(4-(1,4-dimethyl-1H-pyrazol-5-yl)-5-fluoropyrimidin-2-yl)-N-methyl-N-(thiazol-2-ylmethyl)piperidine-4-carboxamide], the EC50 lay within 0.1 to 100 nM.

`CCN(Cc1nc(C)cs1)C(=O)C1CCN(c2ncc(F)c(-c3c(C)cnn3C)n2)CC1` [Compound 72, 1-(4-(1,4-dimethyl-1H-pyrazol-5-yl)-5-fluoropyrimidin-2-yl)-N-ethyl-N-((4-methylthiazol-2-yl)methyl)piperidine-4-carboxamide]: the EC50 is 0.1 to 100 nM.

Consider `[2H]C([2H])([2H])N(Cc1nc(C)cs1)C(=O)C1CCN(c2ncc(F)c(-c3c(C)cnn3C)n2)CC1` [Compound 78, 1-(4-(1,4-dimethyl-1H-pyrazol-5-yl)-5-fluoropyrimidin-2-yl)-N-(methyl-d3)-N-((4-methylthiazol-2-yl)methyl)piperidine-4-carboxamide], for which the EC50 is 0.1 to 100 nM. The value for `Cc1cnn(C)c1-c1nc(N2CCC(C(=O)N[C@H](CO)c3ccccc3)CC2)ncc1F` [Compound 36, (S)-1-(4-(1,4-dimethyl-1H-pyrazol-5-yl)-5-fluoropyrimidin-2-yl)-N-(2-hydroxy-1-phenylethyl)piperidine-4-carboxamide] was 1000 to 10000 nM. As to `Cc1cnn(C)c1-c1nc(N2CCN(C(=O)N(O)Cc3cc(F)cc(F)c3)CC2)ncc1F` [Compound 29, N-(3,5-difluorobenzyl)-4-(4-(1,4-dimethyl-1H-pyrazol-5-yl)-5-fluoropyrimidin-2-yl)-N-hydroxypiperazine-1-carboxamide], the EC50 fell in the range of 0.1 to 100 nM. For `CCN(Cc1sc(C)nc1C)C(=O)C1CCN(c2ncc(F)c(-c3c(C)cnn3C)n2)CC1` [Compound 70, 1-(4-(1,4-dimethyl-1H-pyrazol-5-yl)-5-fluoropyrimidin-2-yl)-N-((2,4-dimethylthiazol-5-yl)methyl)-N-ethylpiperidine-4-carboxamide] the value was 1000 to 10000 nM.
